Tests used:
osteoclasts = assay: Bone absorption-inhibitory action in cell co-cultivation system (TRACP activity); format: cell-based, mice; conditions: 10 μM test substance
From the text: The cell co-culture system used herein means a system in which osteoblasts and hematopoietic cells are subjected to co-culture in the presence of a factor for promoting the formation of osteoclasts and which thus easily permits the analysis of the differentiation process of the osteoclasts (Endocrinology, 1988, 123: 2600-2602). In such a system, osteoclasts are formed and therefore, the degree of osteoclast-formation can be evaluated by the determination of a tartaric acid-resistant acid phosphatase (TRACP) activity in the cell layer as the parameter indicative of the osteoclast.
The test for the confirmation of the bone absorption-inhibitory action of the isoprenoid ester was carried out according to the method disclosed in the literature (Endocrinology, 1988, 123: 2600). The method will be outlined below:
Stroma cells collected from the skull-caps of two-week-old mice according to the method disclosed in the literature (Endocrinology, 1988, 123: 2600) were dispersed in a 10% fetal bovine serum-containing culture base liquid (α-MEM; available from Gibco Company) to a cell density of 5×10^4 cells/mL.
Spleen cells collected from the spleen of 6-week-old ddy male mice according to the method disclosed in the literature (Proc. Natl. Acad. Sci. USA, 1983, 80: 5583) were dispersed in a 10% fetal bovine serum-containing culture base liquid (α-MEM; available from Gibco Company) to a cell density of 5×10^5 cells/mL.
The co-cultivation was carried out in a 5% CO2-containing atmosphere at a temperature of 37° C. using a 10% FBS (fetal bovine serum)-containing culture base liquid (α-MEM; available from Gibco Company). Osteoblast cells were inoculated on a 24-well petri dish at a cell density of 5×10^4 cells/mL/well, spleen cells were then inoculated thereon at a cell density of 5×10^5 cells/mL/well after one day and a solution of a test substance, which had been dissolved in DMSO in a concentration of 10^-2M, was then added to each well in such a manner that the concentration of the test substance was equal to 10 μM. These cells were cultivated in the presence of 10 nM Calcitriol and 100 nM Dexamethasone over 2 weeks while defining the day on which the spleen cells were inoculated as 0th day. In this respect, the culture medium was replaced with fresh one twice a week. After two weeks, the activity of the tartrate-resistant acid phosphatase (hereunder referred to as “TRACP”) in the cell layer was determined, which served as a parameter indicating the number of osteoclasts in the layer.
In the determination of the TRACP activity, there was used a kit of acid phosphatase KII-WAKO (available from WAKO Pure Chemical Co., Ltd.). The culture medium was removed from the Petri dish, 500 μL each of a substrate was added to each well, the resulting cell suspension was heated at 37° C. for 15 minutes, followed by the addition of 500 μL each of a color developing liquid and the determination of the absorbance at a wavelength of 570 nm. The TRACP activity corresponding to each absorbance thus measured was determined using a calibration curve prepared in advance.

MC3T3-E1 cells [1] = assay: Cell growth rate of osteoblasts in cell culture system; format: cell-based, mice; conditions: 10 μM; viable cells after 3 days; relative to control defined as 100
From the text: (§1) In such a system, the osteoblasts are proliferated and the activity of osteoblasts is increased. Therefore, any influence of a substance on the osteoblast-formation can be evaluated by determining, for instance, the rate of cell proliferation and the alkaline phosphatase (ALP) activity as an activity parameter.
(§2) In this Example, there were examined the effects of the chain isoprenoid fatty acid esters on the differentiation and calcium-accumulation of MC3T3-E1 cells or the osteoblasts derived from the skull-caps of mice. A culture medium was added to a 6-well plate in an amount of 2 mL/well, a desired number of MC3T3-E1 cells was inoculated on the medium and the cells were cultivated in a 10% fatal bovine serum-containing base culture liquid (α-MEM, available from Gibco Company) at 37° C. in an atmosphere of 5% CO2. On the day subsequent to the initiation of the cultivation, the culture medium was replaced with the fresh one and simultaneously a solution containing each test sample (the chain isoprenoid fatty acid esters obtained in Preparation Examples 1 to 9) was admixed with and added to the culture medium in an amount of 10 μM for the determination of the cell growth rate and 2.5 μM for the determination of the alkali phosphatase (ALP) activity and the cultivation was continued. The cells for the cell growth rate determination were recovered after 3 days from the initiation of the cultivation and the number of viable cells was counted to determine the cell growth rate. Regarding the other cells, the medium was replaced with fresh one on 5th day of cultivation, the test sample-containing solution was again added and the alkali phosphatase (ALP) activity was determined after the cultivation over one week.
The cell growth rate was calculated as a value relative to the cell growth rate observed for the control (free of any added test sample), which was defined to be 100.

MC3T3-E1 cells [2] = assay: Alkaline phosphatase (ALP) activity of osteoblasts in cell culture system; format: cell-based, mice; conditions: 2.5 μM
From the text: as §1, §2
In these experiments, there was used a kit for Alkaline Phospha K-Test WAKO (available from WAKO Pure Chemical Co., Ltd.). A sample used was a suspension of cells obtained by cultivating the same in the presence of each test substance added. A substrate (150 μL) was added to 10 μL of each sample followed by heating at 37° C. for 15 minutes, the addition of 150 μL of a color-developing liquid and determination of the absorbance at 570 nm. The ALP activity corresponding to each absorbance thus measured was determined using a calibration curve prepared in advance.

Test for acute toxicity = format: in vivo, rats; conditions: oral
Protocol: The acute toxicity test was carried out according to the following method. Whister female rats (6-week-old, average body weight: 160 g) were previously kept for one week using a powdery blend feed having an AIN-93 composition, divided into three groups (each group containing 10 animals) in such a manner that the average body weight was uniform and the groups were specified as the orally administered group, the subcutaneously administered group and the intraperitoneally administered group, in the following tests. Geranyl-geranyl eicosapentaenoate prepared according to the procedures used in Example 5 was dissolved in cotton seed oil and administered to the foregoing animals through the corresponding administration routes in an amount of 2000 mg/kg (body weight). Subsequently, these animals were kept using a powdery blend feed having an AIN-93 composition to thus observe the prognostic conditions of the animals over 2 weeks after the administration and after 2 weeks, these animals were anatomized to thus inspect the animals for conditions of internal organs thereof.

## Geranyl-Geranyl Eicosapentaenoate
osteoclasts; 2 weeks
  Judged Efficacy (TRACP, t-test relative to the control): ⊚ (The test substance shows a considerable inhibitory effect (p < 0.01))
osteoclasts; co-culture 2 weeks with 10 nM Calcitriol and 100 nM Dexamethasone, control 102.8 ± 12.6
  TRACP Act.: 9.7 ± 1.4 KA-U/well
MC3T3-E1 cells [1]
  Cell Growth Rate: 107.8%
MC3T3-E1 cells [2]; cultivation over one week, control 71.6 ± 4.6
  ALP Act.: 123.5 ± 7.3 KA-U/well
MC3T3-E1 cells [2]; one week
  Judged Efficacy (ALP, t-test relative to the control): ⊚ (The test substance shows a considerable inhibitory effect (p < 0.01))
Test for acute toxicity; 2000 mg/kg, subcutaneous, intraperitoneal, after 2 weeks
  Anatomical findings of the internal organs: normal
Test for acute toxicity; 2000 mg/kg, subcutaneous, intraperitoneal, after 2 weeks from the administration
  Mortality: any animal was not killed
Test for acute toxicity; female rats, subcutaneous and intraperitoneal groups, single 2000 mg/kg in cotton seed oil, 2 weeks observation
  LD50 value: higher than 2000 mg/kg (body weight)

Reference: patent US7579374B2, “Agent for improving bone metabolism” (The Nisshin OilliO Group, Ltd., priority 2001, dated 2009)
